Among the data in the NIST ThermoML archive (doi:10.1016/j.jct.2017.12.012) are mass density and activity coefficient values, retold here.

For data set [1] the following is noted: 101.33 kPa, Liquid, Vibrating tube method.
Data set [2] is described as follows: activity coefficient (dimensionless); of the first substance listed, at infinite dilution; xn = mol fraction of the nth substance listed. The conditions noted are these: 101.33 kPa, Liquid, Chromatography, x1 = 0.

For orientation: mass density means mass per unit of volume.

± gives the expanded uncertainty stated by the source.

`CCCCCCCCn1cc[n+](C)c1C.O=S(=O)([N-]S(=O)(=O)C(F)(F)F)C(F)(F)F`: the mass density came to 1296.1 ± 2.4 kg/m3 in data set [1] (313.15 K); 1287.4 ± 2.4 kg/m3 in data set [1] (323.15 K); 1278.6 ± 2.4 kg/m3 in data set [1] (333.15 K); 1269.1 ± 2.4 kg/m3 in data set [1] (343.15 K); 1258.2 ± 2.4 kg/m3 in data set [1] (353.15 K).
Turning to `CC(C)CO` [2-methyl-1-propanol] + CCCCCCCCn1cc[n+](C)c1C.O=S(=O)([N-]S(=O)(=O)C(F)(F)F)C(F)(F)F, the activity coefficient in data set [2] (313.15 K) is 2.21 ± 0.23; in data set [2] (323.15 K), 1.88 ± 0.2; in data set [2] (333.15 K), 1.6 ± 0.17; in data set [2] (343.15 K) it was 1.39 ± 0.14; in data set [2] (353.15 K), 1.21 ± 0.12.
For the compound `ClCCl` [dichloromethane] + CCCCCCCCn1cc[n+](C)c1C.O=S(=O)([N-]S(=O)(=O)C(F)(F)F)C(F)(F)F, the activity coefficient was 0.82 ± 0.08 in data set [2] (313.15 K); 0.75 ± 0.08 in data set [2] (323.15 K); 0.68 ± 0.07 in data set [2] (333.15 K); 0.64 ± 0.07 in data set [2] (343.15 K); 0.58 ± 0.06 in data set [2] (353.15 K).
With `CC#N` [acetonitrile] + CCCCCCCCn1cc[n+](C)c1C.O=S(=O)([N-]S(=O)(=O)C(F)(F)F)C(F)(F)F, the activity coefficient turned out to be 0.51 ± 0.06 in data set [2] (313.15 K); 0.45 ± 0.05 in data set [2] (323.15 K); 0.4 ± 0.05 in data set [2] (333.15 K); 0.37 ± 0.04 in data set [2] (343.15 K); 0.34 ± 0.04 in data set [2] (353.15 K).
As for `CCCCCCC` [heptane] + CCCCCCCCn1cc[n+](C)c1C.O=S(=O)([N-]S(=O)(=O)C(F)(F)F)C(F)(F)F, the activity coefficient in data set [2] (313.15 K) was 8.82 ± 0.93; in data set [2] (323.15 K) it was 7.77 ± 0.82; in data set [2] (333.15 K), 6.89 ± 0.72; in data set [2] (343.15 K), 6.29 ± 0.66; in data set [2] (353.15 K), 5.69 ± 0.6.
In the case of `CC(C)=O` [acetone] + CCCCCCCCn1cc[n+](C)c1C.O=S(=O)([N-]S(=O)(=O)C(F)(F)F)C(F)(F)F, the activity coefficient in data set [2] (313.15 K) stood at 0.46 ± 0.05; in data set [2] (323.15 K), 0.41 ± 0.05; in data set [2] (333.15 K) it was 0.37 ± 0.04; in data set [2] (343.15 K) it was 0.34 ± 0.04; in data set [2] (353.15 K) it was 0.31 ± 0.04.
Take `Cc1cccc(C)c1` [1,3-dimethylbenzene] + CCCCCCCCn1cc[n+](C)c1C.O=S(=O)([N-]S(=O)(=O)C(F)(F)F)C(F)(F)F: the activity coefficient was found to be 1.18 ± 0.12 in data set [2] (313.15 K); 1.14 ± 0.12 in data set [2] (323.15 K); 1.1 ± 0.11 in data set [2] (333.15 K); 1.04 ± 0.11 in data set [2] (343.15 K); 1.01 ± 0.1 in data set [2] (353.15 K).
Take `CCO` [ethanol] + CCCCCCCCn1cc[n+](C)c1C.O=S(=O)([N-]S(=O)(=O)C(F)(F)F)C(F)(F)F: the activity coefficient amounted to 1.7 ± 0.18 in data set [2] (313.15 K); 1.49 ± 0.15 in data set [2] (323.15 K); 1.31 ± 0.13 in data set [2] (333.15 K); 1.15 ± 0.12 in data set [2] (343.15 K); 1.01 ± 0.1 in data set [2] (353.15 K).
For `ClC(Cl)(Cl)Cl` [tetrachloromethane] + CCCCCCCCn1cc[n+](C)c1C.O=S(=O)([N-]S(=O)(=O)C(F)(F)F)C(F)(F)F the same measures were 1.77 ± 0.18, 1.67 ± 0.17, 1.57 ± 0.16, 1.46 ± 0.15 and 1.39 ± 0.14.
Take `CC(C)O` [propan-2-ol] + CCCCCCCCn1cc[n+](C)c1C.O=S(=O)([N-]S(=O)(=O)C(F)(F)F)C(F)(F)F: the activity coefficient in data set [2] (313.15 K) was found to be 2.13 ± 0.22; in data set [2] (323.15 K) it was 1.82 ± 0.19; in data set [2] (333.15 K), 1.56 ± 0.16; in data set [2] (343.15 K), 1.34 ± 0.14; in data set [2] (353.15 K) it was 1.17 ± 0.12.
Consider `Cc1ccccc1` [toluene] + CCCCCCCCn1cc[n+](C)c1C.O=S(=O)([N-]S(=O)(=O)C(F)(F)F)C(F)(F)F, for which the activity coefficient in data set [2] (313.15 K) was determined as 1.03 ± 0.1; in data set [2] (323.15 K), 0.94 ± 0.1; in data set [2] (333.15 K), 0.87 ± 0.09; in data set [2] (343.15 K) it was 0.82 ± 0.08; in data set [2] (353.15 K) it was 0.78 ± 0.08.
Turning to `CCOC(C)=O` [ethyl acetate] + CCCCCCCCn1cc[n+](C)c1C.O=S(=O)([N-]S(=O)(=O)C(F)(F)F)C(F)(F)F, the activity coefficient in data set [2] (313.15 K) worked out at 0.74 ± 0.08; in data set [2] (323.15 K), 0.67 ± 0.07; in data set [2] (333.15 K), 0.61 ± 0.07; in data set [2] (343.15 K), 0.57 ± 0.06; in data set [2] (353.15 K), 0.52 ± 0.06.
As for `CCCCO` [butan-1-ol] + CCCCCCCCn1cc[n+](C)c1C.O=S(=O)([N-]S(=O)(=O)C(F)(F)F)C(F)(F)F, the activity coefficient in data set [2] (313.15 K) amounted to 2.31 ± 0.24; in data set [2] (323.15 K), 1.96 ± 0.21; in data set [2] (333.15 K) it was 1.7 ± 0.18; in data set [2] (343.15 K) it was 1.46 ± 0.15; in data set [2] (353.15 K), 1.27 ± 0.13.
